The subject of the assay is patients with documented CAD. The assay can be described thus: Plasma LDL levels in CAD patients on simvastatin therapy. In kind it is in vivo, human. The following applies: simvastatin 40 mg/day, after 4 months on therapy, 13 CAD patients, data not shown. The source says:
For all studies, patients were recruited and screened for coronary artery disease (CAD) according to the following criteria.
Study Population: Human subjects with active vascular disease were recruited for this aspect of the study. They were screened by a history and physical exam, measurements of lipid profile and routine blood chemistries to include for example, CBC, TSH, free T4, ALT, AST, CPK, CRP, BUN, creatinine, glucose, hemoglobin A1c (if diabetic), urinalysis for protein and glucose. First preference was given to subjects with coronary artery disease. Exclusions included the use of lipid lowering or high dose angiotensin II—altering (or blocking) drugs within three months of the study. For the purposes of the following example, because of the limitations in finding subjects with coronary artery disease that are not on lipid lowering drugs or other vascular active drugs, subjects were also accepted with high coronary disease risk ratings as determined by Framingham Risk Assessment including both hard and soft risk predictors. […]
All lipid, lipoprotein, and apolipoprotein measurements were performed in the Emory Lipid Research Laboratory, a participant in the NHLBI/CDC Lipid Standardization Program. MDA proteins were measured in the Emory Lipid Research Laboratory using a commercially available kit. […]

Each structure is given as a SMILES string.

For the molecule `CCC(C)(C)C(=O)O[C@H]1C[C@@H](C)C=C2C=C[C@H](C)[C@H](CC[C@@H]3C[C@@H](O)CC(=O)O3)[C@H]21` [simvastatin], the “LDL levels reduced by an average of” value worked out at 32.1%.

The values are drawn from patent US7749711B2, “Methods of assessing endothelial dysfunction using acute transient responses following fat administration” (priority 2003, dated 2010).
